Experimental findings from patent publication US9844656B2, “Localization of agents at a target site with a composition and an energy source” (The Regents of the University of California, priority 2010, dated 2017) are described below.

The nature of data set [1]: Ex vivo imaging of doxorubicin accumulation in mouse heart. Particulars: 40 min post administration. On the procedure:
FIG. 15. Ex vivo imaging of doxorubicin accumulation in mouse heart after liposomes were injected into the tail vein and allowed to circulate. Heart was removed after euthanasia to assess fluorescence. a) Doxorubicin fluorescence in hearts of mice injected with liposomal doxorubicin in lyso-temperature sensitive liposomes when Dox was loaded with ammonium sulfate method (ASDox-LTSLs) or loaded in liposomes containing 100 mM copper/270 mM TEA (CuDox-LTSLs), and loaded in temperature sensitive liposomes with 25% cholesterol containing 100 mM copper/270 mM TEA (CuDox-TSLs+25% chol) compared to those injected with free Dox. Animals were euthanized 40 min post administration of free or liposomal doxorubicin. Animals were perfused with saline and hearts were dissected prior to Maestro imaging. Statistical analyses were performed using one-way ANOVA followed by a Tukey Post Hoc test. *p<0.05, **p<0.01. Inset images of heart acquired by Maestro imaging system (white indicates higher doxorubicin fluorescence intensity).

Data set [2] concerns MET-1^fvb2 mammary carcinoma cells. Briefly: In vitro viability assay (MTT). Type of data set: cell-based, mouse. Particulars: Met-1 cell line, 72 hours, read-out: IC50 (cytotoxicity). Here is the method:
MET-1^fvb2 mammary carcinoma cells were obtained from the Alexander Borowsky Laboratory (UC Davis). MET-1 cells were plated at 2000 cells in 50 μl media per well in 96-well tissue culture plates in high glucose Dulbecco's Modified Eagle's Medium (DMEM, Invitrogen, Carlsbad, Calif.) supplemented with 1% PenStrep and 10% FBS. Cells were given six hours to attach to the plate surface. Treatments were added to each well in 100 μl media and experiments were performed in triplicate. Doxil®, a commercial product of ALZA corporation and manufactured by Centocor Ortho Biotech, was purchased from Cardinal Health Care (Dublin, Ohio) and the in vitro viability was compared with the liposomal copper-doxorubicin.
Plates were incubated for 72 hours at 37° C. in 5% CO2. 3-(4,5-dimethylthiazol-2-yl)-2,5-diphenyltetrazolium bromide (MTT, Invitrogen, Carlsbad, Calif.) reagent was added to media at a concentration of 0.5 mg/ml, and cells were incubated 2 hours at 37° C. in 5% CO2. […] Absorbance was measured using Tecan Infinite® M1000 Microplate Reader (San Jose, Calif.) at wavelength 570 nm (reference of 670 nm). Best-fit curves and IC50 values were calculated for concentration-response curves using GraphPad Prism software (GraphPad Inc., La Jolla, Calif.). Average IC50 values calculated from a minimum of three replicate experiments for each preparation.

A further data set relates to NDL cells. Kind of data set: Intracellular trafficking and subcellular localization of doxorubicin. To be noted: post incubation at 37° C. The data set is classed as cell-based.
For data set [3] the following is noted: mouse, in vivo.
Description: Images of circulating doxorubicin were acquired using the Maestro™ hyperspectral imaging system (Cambridge Research & Instrumentation, Inc., Woburn, Mass.). Animals were then euthanized and perfused with saline at 24 or 48 hours post systemic administration of the drug and the accumulation of doxorubicin or copper in tissues and organs were imaged and quantified ex vivo.
The Maestro™ in vivo Imaging System (Cambridge Research & Instrumentation, Inc., Woburn, Mass.) was utilized. The system is consisted of a light-tight and temperature-controlled imaging chamber, a tunable multi-spectral camera system, and a computer with pre-installed software which allows accurate spectral unmixing for increased spectral contrast and improved data quantification. Each mouse was placed in the imaging chamber at 37° C., systemically injected with either free or liposomal doxorubicin, and imaged using the blue Maestro filter set (500:10:720) with the exposure time of 1000 ms. The fluorescence signals were then unmixed from the auto-fluorescence in the image cube. A region of interest (ROI) was manually selected over the signal intensity. The area of the ROI was kept constant and the intensity was recorded as average signal (photons/s/cm^2) within a ROI. […]

As to `COc1cccc2c1C(=O)c1c(O)c3c(c(O)c1C2=O)C[C@@](O)(C(=O)CO)C[C@@H]3O[C@H]1C[C@H](N)[C@H](O)[C@H](C)O1.Cl` [free doxorubicin, Doxorubicin hydrochloride], in data set [1], the “increase in cardiac accumulation of doxorubicin compared to liposomal copper-doxorubicin in temperature-sensitive liposomes” value is listed as 4 fold. Moreover, in data set [2], the concentration for half-maximal inhibition (IC50) (as a rule, the point on the concentration scale where inhibition reaches its midpoint) stood at 20 ± 10 nM. The “time at which the nucleus showed doxorubicin fluorescence” value with NDL cells turned out to be 15 min. In addition, the skin fluorescence trend entry in data set [3] is “decreasing with time”.
